According to patent US6204283A, “Parasitic mite control on beneficial insects” (American Cyanamid Company, priority 1999, dated 2001):

Columns and labels:
Assay type in all cases: in vivo
[1] = system: honeybees (Apis mellifera); assay: Mortality of the Varroa-infested honeybees, topical application; details: 120 h, topical 1 μl acetone solution, 5 days, 31° C., read-out: % Mortality, Bees
Procedure: (§1) Evaluation Of The Efficacy Of Test Compound Against Varroa jacobsoni Parasites
(§2) In this evaluation, honeybees (Apis mellifera) taken from hives which are 70-90% infested with Varroa jacobsoni (Varroa mites) are chilled to immobilize the bees. A 1 μl droplet of an acetone solution of tebufenpyrad is applied to the dorsal abdomen of each bee. Control bees receive 1 μl droplet of acetone. A total of 50-52 bees are treated for each dose rate tested. Treatment dose rates are based upon the LD50 (dose rate required to obtain 50% mortality of healthy uninfected bees) of tebufenypyrad and are set at 10% of the LD50 and subsequent 10-fold dilution thereof. The treated bees are placed in an incubator at 31° C. in the dark and fed 50% sugar water ad libitum for 5 days. After incubation, the bees are examined for mortality and mite infestation. The results are shown in Table I below, as % mortality of the total of the bees and the total of the mites.

[2] = system: Varroa jacobsoni (Varroa mites); assay: Efficacy against Varroa jacobsoni parasites on infested honeybees, topical application (mite mortality); details: 120 h, topical 1 μl acetone solution, 5 days, 31° C.
Procedure: as §1, §2

Varroa jacobsoni = assay: Field evaluation against Varroa jacobsoni parasites in infested beehives (stickyboard count); details: two strips containing 18% tebufenpyrad in 60:40 beeswax:lard, 24 hours after treatment
Description: Field Evaluation Of The Efficiacy Of Test Compound Against Varroa jacobsoni Parasites
In this evaluation, two Varroa jacobsoni infested beehives are monitored for the extent of infestation using stickyboards inserted at the bottom of the hive. Data are presented as the number of mites trapped on the stickyboard per day. Two strips (2.5×17 cm) containing 18% tebufenpyrad dissolved in a 60:40 beeswax:lard (Crisco®) mixture are inserted into each hive brood chamber as per standard practice. One day after treatment, the stickyboards are removed and the dead mites counted.

[3] = system: Acarapis woodi (trachea mites); assay: Efficacy against Acarapis woodi parasites on treated glass slides; details: slides dipped in 500 ppm acetone solution
Description: Evaluation Of The Efficacy Of Test Compound Against Acarapis woodi Parasites
In this evaluation, honeybees (Apis mellifera) which are infested with Acarapis woodi (trachea mites) are dissected to remove the infested tracheae. Glass microscope slides are dipped into acetone solutions of tebufenpyrad (500 ppm)and the acetone is allowed to evaporate. Infested tracheae are placed directly on the treated slides. The mites are removed from the tracheae by dissection and forced to walk across the treated area. The elapsed time is recorded for 100% mortality, i.e. no movement is observed upon agitation.

## CCc1nn(C)c(C(=O)NCc2ccc(C(C)(C)C)cc2)c1Cl [Tebufenpyrad, N-(4-t-butylbenzyl)-4-chloro-3-ethyl-1-methylpyrazole-5-carboxamide]
[1]; 0.006 μg/bee
  mortality at 0.006 µg/bee: 24%
[1]; 0.06 μg/bee
  mortality at 0.06 µg/bee: 25%
[1]; 0.6 μg/bee
  mortality at 0.6 µg/bee: 28%
[2]; 0.006 μg/bee
  mortality at 0.006 µg/bee: 58%
[2]; 0.06 μg/bee
  mortality at 0.06 µg/bee: 44%
[2]; 0.6 μg/bee
  mortality at 0.6 µg/bee: 92%
Varroa jacobsoni; Hive 1, pretreatment 101 mites/day
  Treatment mites/day (dead mites trapped on stickyboard): 1777 mites/day
Varroa jacobsoni; Hive 2, pretreatment 66 mites/day
  Treatment mites/day (dead mites trapped on stickyboard): 1080 mites/day
[3]; Rep. 1, 7 mites
  Time required to achieve 100% mortality: 8.5 min
[3]; Rep. 2, 10 mites
  Time required to achieve 100% mortality: 8 min
[3]; Rep. 3, 7 mites
  Time required to achieve 100% mortality: 8 min
